# Experiments:
# [1] = test system: HCT-116 human colon carcinoma cell line; test: Cell viability assay (SRB) in HCT-116; format: cell-based; conditions: 72 hours after treatment, read-out: HCT116 IC50
# Protocol: (§1) Human colon carcinoma cell line HCT-116 was a kind gift from Igor Ronninson from University of South Caroli, Columbia, USA. Human breast cancer cell line, JIMT-1 was kindly provided by Ali Osmay Güre from Bilkent University, Ankara, Turkey. Cells were cultured in Dulbecco's modified Eagle's medium (Lonza, NJ, USA), supplemented with 10% fetal bovine serum (FBS, Lonza), 1% non-essential amino acid (NEAA), 2 mM L-glutamine (Sigma Aldrich, MO, USA) and 50 U/ml penicillin/streptomycin (P/S). HCT-116 cells were cultured in McCoy's 5A (modified) (Gibco) medium supplemented with FBS, NEAA, L-glutamine and P/S. All cell lines were tested regularly using MycoAlert Mycoplasma Detection Kit (Lonza). The cumulative length of the cells between thawing and use in the experiments was less than 20 passages.
# (§2) Newly synthesized molecules were dissolved in 100% DMSO to yield a stock concentration of 10 mM. For cell viability assay, JIMT-1 (3×10^3 cells/well) and HCT-116 (4×10^3), cells were seeded into 96-well plates, and 24 hours after cell seeding inhibitor treatments were performed at different concentrations. Cell viability was measured 72 hours after treatment with Sulforhodamine B (SRB, Sigma Aldrich) assay as recommended by the manufacturer.
# [2] = test system: JIMT-1 human breast cancer cell line; test: Cell viability assay (SRB) in JIMT-1; format: cell-based; conditions: 72 hours after treatment, read-out: JIMT1 IC50
# Protocol: as §1, §2
SMILES,IC50 [1] [nM],IC50 [2] [nM]
"COc1ccc(-c2cc(Nc3ccnc(N4CC5(COC5)C4)n3)[nH]n2)c(F)c1 [Compound 146, N-(3-(2-fluoro-4-methoxyphenyl)-1H-pyrazol-5-yl)-2-(2-oxa-6-azaspiro[3.3]heptan-6-yl)pyrimidin-4-amine]",534,479
"COc1ccc(-c2cc(Nc3ccnc(N4CCOC(C(F)(F)F)C4)n3)[nH]n2)cc1F (stereo not drawn) [Compound 96, N-(3-(3-fluoro-4-methoxyphenyl)-1H-pyrazol-5-yl)-2-(2-(trifluoromethyl)morpholino)pyrimidin-4-amine]",89,47
"COc1ccc(-c2cc(Nc3ccnc(N4CCOCC4)n3)[nH]n2)cc1 [Compound 5, N-(3-(4-methoxyphenyl)-1H-pyrazol-5-yl)-2-morpholinopyrimidin-4-amine]",47,5
"FC(F)Oc1ccc(-c2cc(Nc3ccnc(N4C5CCC4COC5)n3)[nH]n2)cc1 [Compound 259, 2-(3-oxa-8-azabicyclo[3.2.1]octan-8-yl)-N-(3-(4-(difluoromethoxy)phenyl)-1H-pyrazol-5-yl)pyrimidin-4-amine]",≥ 10000,65
"C[C@@H]1CN(c2nccc(Nc3cc(-c4ccc(OC(F)F)cc4)n[nH]3)n2)C[C@H](C)O1 [Compound 201, N-(3-(4-(difluoromethoxy)phenyl)-1H-pyrazol-5-yl)-2-((2R,6S)-2,6-dimethylmorpholino)pyrimidin-4-amine]",91,76
"FC(F)Oc1ccc(-c2cc(Nc3ccnc(N4C[C@H]5C[C@@H]4CO5)n3)[nH]n2)cc1 [Compound 262, 2-((1R,4R)-2-oxa-5-azabicyclo[2.2.1]heptan-5-yl)-N-(3-(4-(difluoromethoxy)phenyl)-1H-pyrazol-5-yl)pyrimidin-4-amine]",≥ 10000,329
"COc1ccc(-c2cc(Nc3ccnc(N4CCC(C(F)(F)F)CC4)n3)[nH]n2)c(F)c1 [Compound 132, N-(3-(2-fluoro-4-methoxyphenyl)-1H-pyrazol-5-yl)-2-(4-(trifluoromethyl)piperidin-1-yl)pyrimidin-4-amine]",38,18
"COc1ccc(-c2cc(Nc3ccnc(N4CCOC(C)(C)C4)n3)[nH]n2)c(F)c1 [Compound 135, 2-(2,2-dimethylmorpholino)-N-(3-(2-fluoro-4-methoxyphenyl)-1H-pyrazol-5-yl)pyrimidin-4-amine]",880,230
"COc1ccc(-c2cc(N(C)c3ccnc(N4C[C@@H](C)O[C@@H](C)C4)n3)[nH]n2)c(F)c1 [Compound 275, 2-((2R,6S)-2,6-dimethylmorpholino)-N-(3-(2-fluoro-4-methoxyphenyl)-1H-pyrazol-5-yl)-N-methylpyrimidin-4-amine]",46,13
"COc1ccc(-c2cc(Nc3ccnc(N4CCC(C(F)(F)F)CC4)n3)[nH]n2)cc1F [Compound 89, N-(3-(3-fluoro-4-methoxyphenyl)-1H-pyrazol-5-yl)-2-(4-(trifluoromethyl)piperidin-1-yl)pyrimidin-4-amine]",9,31
"CC1(F)CN(c2nccc(Nc3cc(-c4ccc(OC(F)F)cc4)n[nH]3)n2)C1 [Compound 248, N-(3-(4-(difluoromethoxy)phenyl)-1H-pyrazol-5-yl)-2-(3-fluoro-3-methylazetidin-1-yl)pyrimidin-4-amine]",≥ 10000,1560
"COc1ccc(-c2cc(Nc3ccnc(N4CCOC(C)(C)C4)n3)[nH]n2)cc1F [Compound 92, 2-(2,2-dimethylmorpholino)-N-(3-(3-fluoro-4-methoxyphenyl)-1H-pyrazol-5-yl)pyrimidin-4-amine]",488,245
"CC1COCCN1c1nccc(Nc2cc(-c3ccc(OC(F)F)cc3)n[nH]2)n1 (stereo not drawn) [Compound 229, N-(3-(4-(difluoromethoxy)phenyl)-1H-pyrazol-5-yl)-2-(3-methylmorpholino)pyrimidin-4-amine]",62,96
"COc1ccc(-c2cc(Nc3nc(N4C[C@@H](C)O[C@@H](C)C4)ncc3Cl)[nH]n2)c(F)c1 [Compound 281, 5-chloro-2-((2R,6S)-2,6-dimethylmorpholino)-N-(3-(2-fluoro-4-methoxyphenyl)-1H-pyrazol-5-yl)pyrimidin-4-amine]",436,131
"C[C@@H]1CN(c2ncnc(Nc3cc(-c4ccc(OC(F)F)cc4)n[nH]3)n2)C[C@H](C)O1 [Compound 310, N-(3-(4-(difluoromethoxy)phenyl)-1H-pyrazol-5-yl)-4-((2R,6S)-2,6-dimethylmorpholino)-1,3,5-triazin-2-amine]",2960,2350
"FC(F)Oc1ccc(-c2cc(Nc3ccnc(N4CCCC4)n3)[nH]n2)cc1 [Compound 242, N-(3-(4-(difluoromethoxy)phenyl)-1H-pyrazol-5-yl)-2-(pyrrolidin-1-yl)pyrimidin-4-amine]",1490,110
"COc1ccc(-c2cc(Nc3ccnc(N4CC5COCC5C4)n3)[nH]n2)c(F)c1 (stereo not drawn) [Compound 140, N-(3-(2-fluoro-4-methoxyphenyl)-1H-pyrazol-5-yl)-2-(tetrahydro-1H-furo[3,4-c]pyrrol-5(3H)-yl)pyrimidin-4-amine]",457,107
"COc1ccc(-c2cc(Nc3ccnc(N4CCC(C)CC4)n3)[nH]n2)cc1 [Compound 69, N-(3-(4-methoxyphenyl)-1H-pyrazol-5-yl)-2-(4-methylpiperidin-1-yl)pyrimidin-4-amine]",5,25
"COc1ccc(-c2cc(Nc3ccnc(N4CCOCC4)n3)[nH]n2)c(F)c1 [Compound 56, N-(3-(2-fluoro-4-methoxyphenyl)-1H-pyrazol-5-yl)-2-morpholinopyrimidin-4-amine]",36,23
"COc1ccc(-c2cc(Nc3ccnc(N4CCC(C)CC4)n3)[nH]n2)cc1F [Compound 87, N-(3-(3-fluoro-4-methoxyphenyl)-1H-pyrazol-5-yl)-2-(4-methylpiperidin-1-yl)pyrimidin-4-amine]",25,25
"COc1ccc(-c2cc(Nc3ccnc(C4CCOCC4)n3)[nH]n2)c(F)c1 [Compound 318, N-(3-(2-fluoro-4-methoxyphenyl)-1H-pyrazol-5-yl)-2-(tetrahydro-2H-pyran-4-yl)pyrimidin-4-amine]",293,319
"C[C@@H]1CN(c2nccc(Nc3cc(-c4ccc(C(F)F)cc4)n[nH]3)n2)C[C@H](C)O1 [Compound 202, N-(3-(4-(difluoromethyl)phenyl)-1H-pyrazol-5-yl)-2-((2R,6S)-2,6-dimethylmorpholino)pyrimidin-4-amine]",722,187
"COc1ccc(-c2cc(Nc3ccnc(N4CCC(C)(C)CC4)n3)[nH]n2)c(F)c1 [Compound 143, 2-(4,4-dimethylpiperidin-1-yl)-N-(3-(2-fluoro-4-methoxyphenyl)-1H-pyrazol-5-yl)pyrimidin-4-amine]",1010,426
"COc1ccc(-c2cc(Nc3ccnc(N4CC5CC5C4)n3)[nH]n2)c(F)c1 (stereo not drawn) [Compound 141, 2-(3-azabicyclo[3.1.0]hexan-3-yl)-N-(3-(2-fluoro-4-methoxyphenyl)-1H-pyrazol-5-yl)pyrimidin-4-amine]",163,41
"CC1COCC(C)N1c1nccc(Nc2cc(-c3ccc(OC(F)F)cc3)n[nH]2)n1 (stereo not drawn) [Compound 227, N-(3-(4-(difluoromethoxy)phenyl)-1H-pyrazol-5-yl)-2-(3,5-dimethylmorpholino)pyrimidin-4-amine]",2260,1430
"C[C@@H]1CN(c2ncc(F)c(Nc3cc(-c4ccc(OC(F)F)cc4)n[nH]3)n2)C[C@@H](C)O1 [Compound 292, N-(3-(4-(difluoromethoxy)phenyl)-1H-pyrazol-5-yl)-2-((2R,6R)-2,6-dimethylmorpholino)-5-fluoropyrimidin-4-amine]",996,659
"COc1ccc(-c2cc(Nc3ccnc(N4CC(C)(C)OC(C)(C)C4)n3)[nH]n2)c(F)c1 [Compound 133, N-(3-(2-fluoro-4-methoxyphenyl)-1H-pyrazol-5-yl)-2-(2,2,6,6-tetramethylmorpholino)pyrimidin-4-amine]",6560,606
"COc1ccc(-c2cc(Nc3ccnc(N4CCC5(CCC5)CC4)n3)[nH]n2)c(F)c1 [Compound 142, N-(3-(2-fluoro-4-methoxyphenyl)-1H-pyrazol-5-yl)-2-(7-azaspiro[3.5]nonan-7-yl)pyrimidin-4-amine]",1210,266
"COc1ccc(-c2cc(Nc3ccnc(N4CCC(C)CC4)n3)[nH]n2)c(F)c1 [Compound 130, N-(3-(2-fluoro-4-methoxyphenyl)-1H-pyrazol-5-yl)-2-(4-methylpiperidin-1-yl)pyrimidin-4-amine]",7,18
"FC(F)Oc1ccc(-c2cc(Nc3ccnc(N4CC5CCC(C4)O5)n3)[nH]n2)cc1 [Compound 260, 2-(8-oxa-3-azabicyclo[3.2.1]octan-3-yl)-N-(3-(4-(difluoromethoxy)phenyl)-1H-pyrazol-5-yl)pyrimidin-4-amine]",8980,648

# Reference: US20240374590A1, “COMPOSITIONS AND METHODS FOR TREATING CANCER” (A2A PHARMACEUTICALS, INC., priority 2021, published 2024)
